Measurements from ChEMBL document CHEMBL1201862, “PubChem BioAssay data set” (2004).
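Test compounds were applied to cells in 96-well plates for 48 hours at 5 doses. GI50 is the concentration that inhibits growth by half.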 The source made the active and inactive calls. Cut-off read from the data, not from the text of the source: active = GI50 up to about 1.1 µM and inactive = higher.

Tests used:
Experiment in all cases: NCI-60 cell line screen, 48 h
SR = test system: SR
UO-31 = test system: UO-31
DLD-1 = test system: DLD-1
786-0 = test system: 786-0
SK-MEL-28 = test system: SK-MEL-28
HOP-18 = test system: HOP-18
HCT-116 = test system: HCT-116
RXF 631 = test system: RXF 631
CAKI-1 = test system: CAKI-1
UACC-62 = test system: UACC-62
ACHN = test system: ACHN
A498 = test system: A498
DMS-114 = test system: DMS-114
EKVX = test system: EKVX
OVCAR-8 = test system: OVCAR-8
IGROV-1 = test system: IGROV-1
KM12 = test system: KM12
TK-10 = test system: TK-10
SK-OV-3 = test system: SK-OV-3
SNB-75 = test system: SNB-75
NCI-H226 = test system: NCI-H226
K562 = test system: K562
SW-620 = test system: SW-620
DMS-273 = test system: DMS-273
HCT-15 = test system: HCT-15
UACC-257 = test system: UACC-257
SNB-19 = test system: SNB-19
HCC 2998 = test system: HCC 2998
OVCAR-5 = test system: OVCAR-5
SF-539 = test system: SF-539
HL-60 = test system: HL-60
NCI-H460 = test system: NCI-H460
CCRF-CEM = test system: CCRF-CEM
OVCAR-4 = test system: OVCAR-4
HT-29 = test system: HT-29
OVCAR-3 = test system: OVCAR-3
A549 = test system: A549
XF498 = test system: XF498
LOX IMVI = test system: LOX IMVI
SK-MEL-5 = test system: SK-MEL-5
Malme-3M = test system: Malme-3M
MOLT-4 = test system: MOLT-4
SNB-78 = test system: SNB-78
HOP-92 = test system: HOP-92
RPMI-8226 = test system: RPMI-8226
NCI-H522 = test system: NCI-H522
COLO 205 = test system: COLO 205
M14 = test system: M14
LXFL 529 = test system: LXFL 529
SN12C = test system: SN12C
SF-268 = test system: SF-268
NCI-H23 = test system: NCI-H23
HOP-62 = test system: HOP-62
U-251 = test system: U-251
KM-20L2 = test system: KM-20L2
SF-295 = test system: SF-295
M19-MEL = test system: M19-MEL
RXF 393 = test system: RXF 393
SK-MEL-2 = test system: SK-MEL-2

**Q.** Which GI50 (SR) does the source give for `CCC(CC)n1cc(C(=O)NC(=O)NCCCCCOC(=O)CCCCCCCCCCC(=O)OCCCCCNC(=O)NC(=O)c2cn(C(CC)CC)c(=O)[nH]c2=O)c(=O)[nH]c1=O` here?
**A.** > 100 µM (inactive)

**Q.** What about the GI50 (UO-31) of the same molecule?
**A.** > 100 µM (inactive)

**Q.** What about the GI50 (DLD-1) of the same molecule?
**A.** > 100 µM (inactive)

**Q.** What about the GI50 (786-0) of the same molecule?
**A.** 45.8 µM (inactive)

**Q.** What about the GI50 (SK-MEL-28) of the same molecule?
**A.** > 100 µM (inactive)

**Q.** What about the GI50 (HOP-18) of the same molecule?
**A.** > 100 µM (inactive)

**Q.** What about the GI50 (HCT-116) of the same molecule?
**A.** > 100 µM (inactive)

**Q.** What about the GI50 (RXF 631) of the same molecule?
**A.** > 100 µM (inactive)

**Q.** What about the GI50 (CAKI-1) of the same molecule?
**A.** > 100 µM (inactive)

**Q.** What about the GI50 (UACC-62) of the same molecule?
**A.** > 100 µM (inactive)

**Q.** And the GI50 (ACHN)?
**A.** > 100 µM (inactive)

**Q.** What about the GI50 (A498) of the same molecule?
**A.** > 100 µM (inactive)

**Q.** And the GI50 (DMS-114)?
**A.** > 100 µM (inactive)

**Q.** And the GI50 (EKVX)?
**A.** > 100 µM (inactive)

**Q.** What about the GI50 (OVCAR-8) of the same molecule?
**A.** 64.3 µM (inactive)

**Q.** What about the GI50 (IGROV-1) of the same molecule?
**A.** > 100 µM (inactive)

**Q.** And the GI50 (KM12)?
**A.** > 100 µM (inactive)

**Q.** What about the GI50 (TK-10) of the same molecule?
**A.** > 100 µM (inactive)

**Q.** What about the GI50 (SK-OV-3) of the same molecule?
**A.** > 100 µM (inactive)

**Q.** What about the GI50 (SNB-75) of the same molecule?
**A.** 22.8 µM (inactive)

**Q.** What about the GI50 (NCI-H226) of the same molecule?
**A.** > 100 µM (inactive)

**Q.** And the GI50 (K562)?
**A.** > 100 µM (inactive)

**Q.** What about the GI50 (SW-620) of the same molecule?
**A.** > 100 µM (inactive)

**Q.** And the GI50 (DMS-273)?
**A.** > 100 µM (inactive)

**Q.** What about the GI50 (HCT-15) of the same molecule?
**A.** > 100 µM

**Q.** What about the GI50 (UACC-257) of the same molecule?
**A.** > 100 µM (inactive)

**Q.** And the GI50 (SNB-19)?
**A.** 27.7 µM (inactive)

**Q.** And the GI50 (HCC 2998)?
**A.** > 100 µM (inactive)

**Q.** What about the GI50 (OVCAR-5) of the same molecule?
**A.** > 100 µM (inactive)

**Q.** And the GI50 (SF-539)?
**A.** 47.2 µM (inactive)

**Q.** What about the GI50 (HL-60) of the same molecule?
**A.** > 100 µM (inactive)

**Q.** And the GI50 (NCI-H460)?
**A.** > 100 µM (inactive)

**Q.** And the GI50 (CCRF-CEM)?
**A.** > 100 µM (inactive)

**Q.** What about the GI50 (OVCAR-4) of the same molecule?
**A.** > 100 µM (inactive)

**Q.** What about the GI50 (HT-29) of the same molecule?
**A.** > 100 µM (inactive)

**Q.** And the GI50 (OVCAR-3)?
**A.** > 100 µM (inactive)

**Q.** And the GI50 (A549)?
**A.** > 100 µM (inactive)

**Q.** And the GI50 (XF498)?
**A.** > 100 µM (inactive)

**Q.** And the GI50 (LOX IMVI)?
**A.** > 100 µM (inactive)

**Q.** What about the GI50 (SK-MEL-5) of the same molecule?
**A.** > 100 µM (inactive)

**Q.** And the GI50 (Malme-3M)?
**A.** > 100 µM (inactive)

**Q.** What about the GI50 (MOLT-4) of the same molecule?
**A.** > 100 µM (inactive)

**Q.** And the GI50 (SNB-78)?
**A.** > 100 µM (inactive)

**Q.** And the GI50 (HOP-92)?
**A.** > 100 µM (inactive)

**Q.** And the GI50 (RPMI-8226)?
**A.** > 100 µM (inactive)

**Q.** And the GI50 (NCI-H522)?
**A.** > 100 µM (inactive)

**Q.** And the GI50 (COLO 205)?
**A.** > 100 µM (inactive)

**Q.** And the GI50 (M14)?
**A.** > 100 µM (inactive)

**Q.** And the GI50 (LXFL 529)?
**A.** 62.8 µM (inactive)

**Q.** And the GI50 (SN12C)?
**A.** > 100 µM (inactive)

**Q.** What about the GI50 (SF-268) of the same molecule?
**A.** > 100 µM (inactive)

**Q.** What about the GI50 (NCI-H23) of the same molecule?
**A.** > 100 µM (inactive)

**Q.** What about the GI50 (HOP-62) of the same molecule?
**A.** > 100 µM (inactive)

**Q.** And the GI50 (U-251)?
**A.** 88.3 µM (inactive)

**Q.** What about the GI50 (KM-20L2) of the same molecule?
**A.** > 100 µM (inactive)

**Q.** And the GI50 (SF-295)?
**A.** > 100 µM (inactive)

**Q.** What about the GI50 (M19-MEL) of the same molecule?
**A.** > 100 µM (inactive)

**Q.** What about the GI50 (RXF 393) of the same molecule?
**A.** 29.1 µM (inactive)

**Q.** What does the source list for `COc1cc(/C=C2\Cc3ccccc3C2=O)cc(OC)c1OC`?
**A.** GI50 (UO-31): > 100 µM (inactive); GI50 (DLD-1): > 100 µM (inactive); GI50 (786-0): > 100 µM (inactive); GI50 (SK-MEL-28): > 100 µM (inactive); GI50 (HOP-18): > 100 µM (inactive); GI50 (HCT-116): > 100 µM (inactive); GI50 (RXF 631): > 100 µM (inactive); GI50 (CAKI-1): > 100 µM (inactive); GI50 (UACC-62): > 100 µM (inactive); GI50 (ACHN): > 100 µM (inactive); GI50 (DMS-114): > 100 µM (inactive); GI50 (EKVX): > 100 µM (inactive); GI50 (OVCAR-8): > 100 µM (inactive); GI50 (KM12): > 100 µM (inactive); GI50 (TK-10): > 100 µM (inactive); GI50 (SK-OV-3): > 100 µM (inactive); GI50 (SNB-75): 51.5 µM (inactive); GI50 (NCI-H226): > 100 µM (inactive); GI50 (K562): > 100 µM (inactive); GI50 (SW-620): > 100 µM (inactive); GI50 (DMS-273): > 100 µM (inactive); GI50 (HCT-15): > 100 µM; GI50 (UACC-257): > 100 µM (inactive); GI50 (SNB-19): > 100 µM (inactive); GI50 (HCC 2998): > 100 µM (inactive); GI50 (OVCAR-5): > 100 µM (inactive); GI50 (SF-539): > 100 µM (inactive); GI50 (HL-60): > 100 µM (inactive); GI50 (NCI-H460): > 100 µM (inactive); GI50 (CCRF-CEM): > 100 µM (inactive); GI50 (OVCAR-4): > 100 µM (inactive); GI50 (HT-29): > 100 µM (inactive); GI50 (OVCAR-3): > 100 µM (inactive); GI50 (A549): > 100 µM (inactive); GI50 (XF498): > 100 µM (inactive); GI50 (LOX IMVI): > 100 µM (inactive); GI50 (SK-MEL-5): > 100 µM (inactive); GI50 (Malme-3M): > 100 µM (inactive); GI50 (MOLT-4): > 100 µM (inactive); GI50 (SNB-78): > 100 µM (inactive); GI50 (SK-MEL-2): > 100 µM (inactive); GI50 (HOP-92): 77.3 µM (inactive); GI50 (RPMI-8226): > 100 µM (inactive); GI50 (NCI-H522): > 100 µM (inactive); GI50 (COLO 205): > 100 µM (inactive); GI50 (M14): > 100 µM (inactive); GI50 (LXFL 529): > 100 µM (inactive); GI50 (SN12C): > 100 µM (inactive); GI50 (SF-268): > 100 µM (inactive); GI50 (NCI-H23): > 100 µM (inactive); GI50 (HOP-62): > 100 µM (inactive); GI50 (U-251): > 100 µM (inactive); GI50 (KM-20L2): > 100 µM (inactive); GI50 (SF-295): > 100 µM (inactive); GI50 (M19-MEL): > 100 µM (inactive); GI50 (RXF 393): > 100 µM (inactive)
